Experimental findings from ChEMBL document CHEMBL5728520, “Carboxamide-pyrimidine derivatives as SHP2 antagonists” (2021) are described below.

This test concerns the target T1, Tyrosine-protein phosphatase non-receptor type 11 (Homo sapiens, UniProt Q06124).
T1 sequence (Q06124 whole entry): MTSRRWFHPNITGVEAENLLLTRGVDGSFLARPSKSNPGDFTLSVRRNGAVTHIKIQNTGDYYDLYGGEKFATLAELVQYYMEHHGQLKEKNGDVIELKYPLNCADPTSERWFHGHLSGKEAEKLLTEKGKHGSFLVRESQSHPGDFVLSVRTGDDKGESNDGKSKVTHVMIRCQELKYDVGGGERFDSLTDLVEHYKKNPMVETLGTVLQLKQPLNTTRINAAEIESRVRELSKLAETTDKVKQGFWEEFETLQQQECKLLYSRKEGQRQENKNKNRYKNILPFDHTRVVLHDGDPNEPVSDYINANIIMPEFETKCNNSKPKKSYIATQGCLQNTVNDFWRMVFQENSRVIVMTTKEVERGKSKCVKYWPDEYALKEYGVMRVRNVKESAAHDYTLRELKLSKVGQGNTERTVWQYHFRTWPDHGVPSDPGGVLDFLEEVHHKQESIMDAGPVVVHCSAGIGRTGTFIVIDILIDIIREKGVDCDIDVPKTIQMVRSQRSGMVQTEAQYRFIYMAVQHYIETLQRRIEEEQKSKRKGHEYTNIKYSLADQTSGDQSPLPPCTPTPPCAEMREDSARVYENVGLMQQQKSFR
The experiment in a line: Biochemical Assay: The inhibition of SHP2 by compounds of the invention was monitored using the surrogate substrate DiFMUP after protein activation by a peptide bearing two appropriately spaced phosphotyrosine. Full length SHP2 protein (Recombinant HumanSHP-2, E. coli derived Ser2Arg593, N-terminal 6His tag from R&D systems; […]) was incubated with activating peptide, IRSI_2pY (New England Peptide, 140 nM) and DiFMUP (molecular probes, 80 uM) at RT in buffer (HEPES pH 7.2 60 mM, DDT 5 mM, KCl 75 mM, NaCl 75 mM, EDTA 1 mM, Tween 20 0.05%) in presence of compound (10 concentrations range, top concentration 50 Î¼M) for 60 min. The generation of the DiFMU product by activated SHP2 was monitored through Fluorescence measurement with a PerkinElmer Envision reader.
Usually IC50 stands for the concentration that inhibits the measured activity by half. As to `CC1(N)CCN(c2nc(Cl)c(-c3cccc(Cl)c3Cl)c(C(N)=O)n2)CC1`, the half-inhibitory concentration (IC50) came to 0.06 µM.
Turning to `CC1(N)CCN(c2ncc(-c3cccc(Cl)c3Cl)c(C(N)=O)n2)CC1`, the IC50 stood at 3.7 µM.
In the case of `C[C@]12CCCCC[C@](C)(CN(c3nc(N)c(-c4cccc(Cl)c4Cl)c(C(N)=O)n3)C1)[C@H]2N` it was more than 10 µM.
